Results as given in patent US9714231B2, “Pyrrolidine GPR40 modulators” (BRISTOL-MYERS SQUIBB COMPANY, priority 2012, dated 2017).
Counter-ions that a name gives are not always drawn.

biological target: human GPR40 (Homo sapiens, UniProt O14842); test: FDSS-based intracellular calcium assay (Human GRP40 in vitro assay); type: cell-based; design: 3xFLAG; expressed in transfected cells; settings: cells expressing GPR40, intracellular Ca2+ response, FDSS reader; read-out: hGPR40 EC50
In short: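 GPR40-expressing cells, plated overnight in serum-free phenol red-free DMEM, loaded with Fluo-3 in HBSS with 1.7 mM probenecid for 30 min at 37° C. Compounds in DMSO, diluted in assay buffer, added as 3× solutions; intracellular Ca^2+ response read on FDSS.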

human GPR40, sequence (O14842 whole entry): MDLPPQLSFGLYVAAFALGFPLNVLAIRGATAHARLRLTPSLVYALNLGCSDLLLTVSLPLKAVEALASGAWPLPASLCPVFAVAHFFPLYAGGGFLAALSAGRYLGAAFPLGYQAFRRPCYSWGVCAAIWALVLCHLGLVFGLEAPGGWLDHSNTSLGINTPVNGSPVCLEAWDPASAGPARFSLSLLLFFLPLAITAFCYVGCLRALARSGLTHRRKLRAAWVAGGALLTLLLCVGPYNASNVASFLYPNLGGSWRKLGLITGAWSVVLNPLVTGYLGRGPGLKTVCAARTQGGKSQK

**Q.** Which EC50 does the source give for `CCOc1ccc(F)c(N2CCC(Oc3ccc(N4C[C@H](OC)C[C@@H]4CC(=O)O)cc3)CC2)c1` [Example 107, 2-((2R,4R)-1-(4-((1-(5-Ethoxy-2-fluorophenyl)piperidin-4-yl)oxy)phenyl)-4-methoxypyrrolidin-2-yl)acetic acid, TFA] here?
**A.** 160 nM

**Q.** With `COc1cc(N2CCC(Oc3ccc(N4CC(C)(C)C[C@@H]4CC(=O)O)cn3)C(C)C2)c(Cl)cn1` (stereo partly drawn) [Example 109, 2-((R)-1-(6-(((3,4-trans)-1-(5-Chloro-2-methoxypyridin-4-yl)-3-methylpiperidin-4-yl)oxy)pyridin-3-yl)-4,4-dimethylpyrrolidin-2-yl)acetic acid, TFA] as the compound, how does the EC50 read?
**A.** 230 nM

**Q.** `COc1cc(N2CCC(Oc3ccc(N4C[C@H](C)C[C@@H]4CC(=O)O)cn3)C(C)C2)c(Cl)cn1` (stereo partly drawn) [Example 110, 2-((2R,4R)-1-(6-(((3,4-trans)-1-(5-Chloro-2-methoxypyridin-4-yl)-3-methylpiperidin-4-yl)oxy)pyridin-3-yl)-4-methylpyrrolidin-2-yl)acetic acid] was tested. Which EC50 did it give?
**A.** 220 nM

**Q.** For `COc1cc(N2CCC(Oc3ccc(N4C[C@H](OC)[C@@H](C)[C@@H]4CC(=O)O)c(F)c3)C(C)C2)c(Cl)cn1` (stereo partly drawn) [Example 111, 2-((2S,3S,4R)-1-(4-(((3,4-trans)-1-(5-Chloro-2-methoxypyridin-4-yl)-3-methylpiperidin-4-yl)oxy)-2-fluorophenyl)-4-methoxy-3-methylpyrrolidin-2-yl)acetic acid], which EC50 is on record?
**A.** 110 nM

**Q.** How did the EC50 turn out when `COc1cc(N2CCC(Oc3ccc(N4C[C@H](OC)[C@@H](C)[C@@H]4CC(=O)O)c(F)c3)CC2)c(Cl)cn1` [Example 112, 2-((2S,3S,4R)-1-(4-((1-(5-Chloro-2-methoxypyridin-4-yl)piperidin-4-yl)oxy)-2-fluorophenyl)-4-methoxy-3-methylpyrrolidin-2-yl)acetic acid] was run?
**A.** 130 nM

**Q.** With `CCOc1ccc(F)c(N2CCC(Oc3ccc(N4C[C@H](OC)[C@@H](C)[C@@H]4CC(=O)O)c(F)c3)C(C)C2)c1` (stereo partly drawn) [Example 113, 2-((2S,3S,4R)-1-(4-(((3,4-trans)-1-(5-Ethoxy-2-fluorophenyl)-3-methylpiperidin-4-yl)oxy)-2-fluorophenyl)-4-methoxy-3-methylpyrrolidin-2-yl)acetic acid] as the compound, how does the EC50 read?
**A.** 290 nM

**Q.** `CCOc1ccc(F)c(N2CCC(Oc3ccc(N4C[C@H](OC)[C@@H](C)[C@@H]4CC(=O)O)c(F)c3)CC2)c1` [Example 114, 2-((2S,3S,4R)-1-(4-((1-(5-Ethoxy-2-fluorophenyl)piperidin-4-yl)oxy)-2-fluorophenyl)-4-methoxy-3-methylpyrrolidin-2-yl)acetic acid] was tested. Which EC50 did it give?
**A.** 320 nM

**Q.** With `CCOc1ccc(F)c(N2CCC(Oc3ccc(N4C[C@H](c5cccc(C(F)(F)F)c5)C[C@@H]4CC(=O)O)cc3)CC2)c1` [Example 122, 2-((2R,4S)-1-(4-((1-(5-Ethoxy-2-fluorophenyl)piperidin-4-yl)oxy)phenyl)-4-(3-(trifluoromethyl)phenyl)pyrrolidin-2-yl)acetic acid, TFA] as the compound, how does the EC50 read?
**A.** 240 nM

**Q.** For `CCOc1ccc(F)c(N2CCC(Oc3ccc(N4C[C@H](c5cnn(C)c5)C[C@@H]4CC(=O)O)cc3)CC2)c1` [Example 126, 2-((2R,4S)-1-(4-((1-(5-Ethoxy-2-fluorophenyl)piperidin-4-yl)oxy)phenyl)-4-(1-methyl-1H-pyrazol-4-yl)pyrrolidin-2-yl)acetic acid, TFA], which EC50 is on record?
**A.** 810 nM

**Q.** Which EC50 does the source give for `CCOc1ccc(F)c(N2CCC(Oc3ccc(N4C[C@H](Oc5ccc(C#N)cc5)CC4CC(=O)O)cc3)CC2)c1` (stereo partly drawn) [Example 128, 2-((4R)-4-(4-Cyanophenoxy)-1-(4-((1-(5-ethoxy-2-fluorophenyl)piperidin-4-yl)oxy)phenyl)pyrrolidin-2-yl)acetic acid, HCl] here?
**A.** 1300 nM

**Q.** `CCOc1ccc(F)c(N2CCC(Oc3ccc(N4C[C@H](C#N)C[C@@H]4CC(=O)O)cc3)CC2)c1` [Example 130, 2-((2R,4R)-4-Cyano-1-(4-((1-(5-ethoxy-2-fluorophenyl)piperidin-4-yl)oxy)phenyl)pyrrolidin-2-yl)acetic acid, TFA] was tested. Which EC50 did it give?
**A.** 2100 nM

**Q.** How did the EC50 turn out when `COc1cc(N2CCC(Oc3ccc(N4C[C@@H](OC)[C@H](C)[C@H]4CC(=O)O)cc3)C(C)C2)c(Cl)cn1` (stereo partly drawn) [Example 131, 2-((2R,3R,4S)-1-(4-(((3,4-trans)-1-(5-Chloro-2-methoxypyridin-4-yl)-3-methylpiperidin-4-yl)oxy)phenyl)-4-methoxy-3-methylpyrrolidin-2-yl)acetic acid] was run?
**A.** 4700 nM

**Q.** Which EC50 does the source give for `COc1cc(N2CCC(Oc3ccc(N4C[C@H](C(F)(F)F)C[C@@H]4CC(=O)O)cc3F)C(C)C2)c(Cl)cn1` (stereo partly drawn) [Example 134, 2-((2R,4R)-1-(4-(((3,4-trans)-1-(5-Chloro-2-methoxypyridin-4-yl)-3-methylpiperidin-4-yl)oxy)-3-fluorophenyl)-4-(trifluoromethyl)pyrrolidin-2-yl)acetic acid] here?
**A.** 580 nM

**Q.** `COc1cc(N2CCC(Oc3ccc(N4C[C@H](C(F)(F)F)C[C@@H]4CC(=O)O)c(Cl)c3)C(C)C2)c(Cl)cn1` (stereo partly drawn) [Example 135, 2-((2R,4R)-1-(2-Chloro-4-(((3,4-trans)-1-(5-chloro-2-methoxypyridin-4-yl)-3-methylpiperidin-4-yl)oxy)phenyl)-4-(trifluoromethyl)pyrrolidin-2-yl)acetic acid, HCO2H] was tested. Which EC50 did it give?
**A.** 400 nM

**Q.** `COc1cc(N2CCC(Oc3ccc(N4C[C@H](C(F)(F)F)C[C@@H]4CC(=O)O)cc3Cl)C(C)C2)c(Cl)cn1` (stereo partly drawn) [Example 136, 2-((2R,4R)-1-(3-Chloro-4-(((3,4-trans)-1-(5-chloro-2-methoxypyridin-4-yl)-3-methylpiperidin-4-yl)oxy)phenyl)-4-(trifluoromethyl)pyrrolidin-2-yl)acetic acid] was tested. Which EC50 did it give?
**A.** 500 nM

**Q.** For `COc1cc(N2CCC(Oc3ccc(N4C[C@H](OC)C[C@@H]4CC(=O)O)cc3Cl)C(C)C2)c(Cl)cn1` (stereo partly drawn) [Example 137, 2-((2R,4R)-1-(3-Chloro-4-(((3,4-trans)-1-(5-chloro-2-methoxypyridin-4-yl)-3-methylpiperidin-4-yl)oxy)phenyl)-4-methoxypyrrolidin-2-yl)acetic acid, sodium salt], which EC50 is on record?
**A.** 230 nM

**Q.** Which EC50 does the source give for `CCOc1ccc(F)c(N2CCC(Oc3ccc(N4C[C@H](C(F)(F)F)C[C@@H]4CC(=O)O)c(F)c3)CC2)c1` [Example 143] here?
**A.** 360 nM

**Q.** Which EC50 does the source give for `COc1cc(N2CCC(Oc3ccc(N4C[C@H](F)[C@@H](C)[C@@H]4CC(=O)O)cc3)C(C)C2)c(Cl)cn1` (stereo partly shown) [Example 145] here?
**A.** 26 nM

**Q.** `COc1cc(N2CCC(Oc3ccc(N4C[C@H](F)[C@@H](C)[C@@H]4CC(=O)O)cn3)C(C)C2)c(Cl)cn1` (stereo partly shown) [Example 146] was tested. Which EC50 did it give?
**A.** 90 nM

**Q.** Which EC50 does the source give for `COc1cc(N2CCC(Oc3ccc(N4C[C@H](OC)C[C@@H]4CC(=O)O)cn3)C(C)C2)c(C2CCCC2)cn1` (stereo partly drawn) [Example 149, 2-((2R,4R)-1-(6-(((3,4-trans)-1-(5-Cyclopentyl-2-methoxypyridin-4-yl)-3-methylpiperidin-4-yl)oxy)pyridin-3-yl)-4-methoxypyrrolidin-2-yl)acetic acid] here?
**A.** 160 nM

**Q.** For `COc1cc(N2CCC(Oc3ccc(N4C[C@H](OC)[C@@H](C)[C@@H]4CC(=O)O)cn3)CC2)c(C2=CCCC2(C)C)cn1` [Example 152, 2-((2S,3S,4R)-1-(6-((1-(5-(5,5-Dimethylcyclopent-1-en-1-yl)-2-methoxypyridin-4-yl)piperidin-4-yl)oxy)pyridin-3-yl)-4-methoxy-3-methylpyrrolidin-2-yl)acetic acid, HCl], which EC50 is on record?
**A.** 68 nM

**Q.** How did the EC50 turn out when `COc1cc(N2CC[C@@H](Oc3ccc(N4C[C@H](OC)[C@@H](C)[C@@H]4CC(=O)O)cn3)[C@H](C)C2)c(C2=CCCC2(C)C)cn1` [Example 153, 2-((2S,3S,4R)-1-(6-(((3R,4R)-1-(5-(5,5-Dimethylcyclopent-1-en-1-yl)-2-methoxypyridin-4-yl)-3-methylpiperidin-4-yl)oxy)pyridin-3-yl)-4-methoxy-3-methylpyrrolidin-2-yl)acetic acid, HCl] was run?
**A.** 200 nM

**Q.** `COc1cc(N2CCC(Oc3ccc(N4CC[C@@H](C)[C@@H]4CC(=O)O)cc3)C(C)C2)c(Cl)cn1` (stereo partly drawn) [Example 154, 2-((2S,3R)-1-(4-(((3,4-trans)-1-(5-Chloro-2-methoxypyridin-4-yl)-3-methylpiperidin-4-yl)oxy)phenyl)-3-methylpyrrolidin-2-yl)acetic acid, TFA] was tested. Which EC50 did it give?
**A.** 110 nM

**Q.** Which EC50 does the source give for `COc1cc(N2CCC(Oc3ccc(N4C[C@H](F)[C@@H](C)[C@@H]4CC(=O)O)cc3F)C(C)C2)c(Cl)cn1` (stereo partly drawn) [Example 156, 2-((2S,3S,4R)-1-(4-(((3,4-trans)-1-(5-Chloro-2-methoxypyridin-4-yl)-3-methylpiperidin-4-yl)oxy)-3-fluorophenyl)-4-fluoro-3-methylpyrrolidin-2-yl)acetic acid] here?
**A.** 63 nM

**Q.** For `CCO[C@H]1CN(c2ccc(OC3CCN(c4cc(OC)ncc4Cl)CC3C)cc2)[C@@H](CC(=O)O)[C@@H]1C` (stereo partly drawn) [Example 158, 2-((2S,3S,4R)-1-(4-(((3,4-trans)-1-(5-Chloro-2-methoxypyridin-4-yl)-3-methylpiperidin-4-yl)oxy)phenyl)-4-ethoxy-3-methylpyrrolidin-2-yl)acetic acid, TFA], which EC50 is on record?
**A.** 160 nM

**Q.** How did the EC50 turn out when `COc1cc(N2CCC(Oc3ncc(N4C[C@H](OC)[C@@H](C)[C@@H]4CC(=O)O)cc3F)C(C)C2)c(Cl)cn1` (stereo partly drawn) [Example 159, 2-((2S,3S,4R)-1-(6-(((3,4-trans)-1-(5-Chloro-2-methoxypyridin-4-yl)-3-methylpiperidin-4-yl)oxy)-5-fluoropyridin-3-yl)-4-methoxy-3-methylpyrrolidin-2-yl)acetic acid] was run?
**A.** 85 nM

**Q.** How did the EC50 turn out when `CCCCOc1cc(N2C[C@H](OC)[C@@H](C)[C@@H]2CC(=O)O)cnc1OC1CCN(c2cc(OC)ncc2Cl)CC1C` (stereo partly drawn) [Example 160, 2-((2S,3S,4R)-1-(5-Butoxy-6-(((3,4-trans)-1-(5-chloro-2-methoxypyridin-4-yl)-3-methylpiperidin-4-yl)oxy)pyridin-3-yl)-4-methoxy-3-methylpyrrolidin-2-yl)acetic acid] was run?
**A.** 86 nM

**Q.** How did the EC50 turn out when `CCCCCO[C@H]1CN(c2ccc(OC3CCN(c4cc(OC)ncc4Cl)CC3C)cc2)[C@@H](CC(=O)O)[C@@H]1C` (stereo partly drawn) [Example 162, 2-((2S,3S,4R)-1-(4-(((3,4-trans)-1-(5-Chloro-2-methoxypyridin-4-yl)-3-methylpiperidin-4-yl)oxy)phenyl)-3-methyl-4-(pentyloxy)pyrrolidin-2-yl)acetic acid, TFA] was run?
**A.** 63 nM
